Source: patent US20010012832A1, “Method of hormone treatment for patients with symptoms consistent with multiple sclerosis” (priority 1999, published 2001)

How the values were obtained:
[1] = system: IGF-I levels; assay: Peak IGF-I levels in males and females before and after administration; assay type: in vivo, human
Excerpt: IGF-I is directly dependent upon the secretion of HGH by the pituitary gland, so therefore there is a direct linkage between increased secretion of HGH and increased production of IGF-I. Table II presents the effects of the low dose at high frequency human growth hormone administration (low dose-high frequency) contemplated by the invention on IGF-I (somatomedin C) blood levels. FIGS. 8 and 9 present the peak IGF-I levels in males and females, respectively, before and after administration of […]. FIGS. 8 and 9 show mean, minimum and maximum, and 25, 50, and 75 percentile for 204 males and 91 females, respectively.
The method of determining the level of the select group of hormones may be accomplished by a simple blood test. A patients' blood is evaluated for the hormone levels of the select group of hormones and those levels are compared to the optimal or predetermined physiological levels set forth in Table I. Based on the comparison of a patient's hormone levels with the optimal or predetermined physiological levels, a regimen is established for the patient for the replenishment of the level of deficient hormones to optimal physiological levels. It is further contemplated, that after the initial evaluation and the establishment of the regimen, a patient is monitored every 30 days, by a similar blood test, until the patient attains the optimal or predetermined physiological level, and the dosages of hormone supplementation are adjusted accordingly. Once the target levels are established, the regimen directs that the patient continue to follow the established dosage of supplemental hormones indefinitely to maintain the optimal or predetermined physiological levels. Periodic blood tests are subsequently administered to assure that the optimal or predetermined physiological levels are maintained.

[2] = system: adult female mice having induced EAE; conditions: 0.6 mg subcutaneously over a ten day period; vs placebo; cited from earlier work
[3] = system: Somatomedin C Blood Levels; assay: Somatomedin C blood levels before and after low dose-high frequency human growth hormone administration; assay type: in vivo; conditions: 47 patients; after vs before hGH
Excerpt: IGF-I is directly dependent upon the secretion of HGH by the pituitary gland, so therefore there is a direct linkage between increased secretion of HGH and increased production of IGF-I. Table II presents the effects of the low dose at high frequency human growth hormone administration (low dose-high frequency) contemplated by the invention on IGF-I (somatomedin C) blood levels. FIGS. 8 and 9 present the peak IGF-I levels in males and females, respectively, before and after administration of […]. FIGS. 8 and 9 show mean, minimum and maximum, and 25, 50, and 75 percentile for 204 males and 91 females, respectively. The method of the invention also contemplates that the HGH is administered in keeping with the way the pituitary secretes HGH naturally. The low dose-high frequency method mimics the pituitary gland. The pituitary secretes HGH 24 hours a day, with the peaks during the first two hours of sleep. The method contemplates that the patients take lower doses more frequently to try to mimic the natural rhythm of the body as much as possible. The invention contemplates that the patients take HGH injections at least twice daily. A preferred regimen calls for subcutaneous injections of doses less than 0.5 mg per day (approximately 1-3 I.U.), administered twice daily. Typical doses for this regimen range from 4 units per week to 8 units per week.

## Insulin-like Growth Factor-I [IGF-I]
[1]; 91 females
  Peak IFG levels FEMALES CHANGE, 25%ile: 26
  Peak IFG levels FEMALES CHANGE, 50%ile: 72
  Peak IFG levels FEMALES CHANGE, 75%ile: 128
  Peak IFG levels FEMALES CHANGE, MAX: 231
  Peak IFG levels FEMALES CHANGE, MEAN: 74.0
  Peak IFG levels FEMALES CHANGE, MEDIAN: 72
  Peak IFG levels FEMALES CHANGE, MIN: −93
[1]; 91 females, before 111
  Peak IFG levels FEMALES AFTER, 25%ile: 177
[1]; 91 females, before 164
  Peak IFG levels FEMALES AFTER, 50%ile: 240
[1]; 91 females, before 205
  Peak IFG levels FEMALES AFTER, 75%ile: 294
[1]; 91 females, before max 311
  Peak IFG levels FEMALES AFTER, MAX: 378
[1]; 91 females, before mean 162.2, mean 133.4 days
  Peak IFG levels FEMALES AFTER, MEAN: 236.3
[1]; 91 females, before median 154
  Peak IFG levels FEMALES AFTER, MEDIAN: 240
[1]; 91 females, before min 41
  Peak IFG levels FEMALES AFTER, MIN: 52
[1]; 204 males
  Peak IFG levels MALES CHANGE, 25%ile: 24
  Peak IFG levels MALES CHANGE, 50%ile: 76
  Peak IFG levels MALES CHANGE, 75%ile: 125
  Peak IFG levels MALES CHANGE, MAX: 258
  Peak IFG levels MALES CHANGE, MEAN: 74.4
  Peak IFG levels MALES CHANGE, MEDIAN: 75.5
[1]; 204 males, before 147
  Peak IFG levels MALES AFTER, 25%ile: 217
[1]; 204 males, before 183
  Peak IFG levels MALES AFTER, 50%ile: 273
[1]; 204 males, before 231
  Peak IFG levels MALES AFTER, 75%ile: 325
[1]; 204 males, before max 361
  Peak IFG levels MALES AFTER, MAX: 396
[1]; 204 males, before mean 192.3, mean 118.5 days
  Peak IFG levels MALES AFTER, MEAN: 266.7
[1]; 204 males, before median 183
  Peak IFG levels MALES AFTER, MEDIAN: 272.5
[1]; 204 males, before min 21
  Peak IFG levels MALES AFTER, MIN: 63
[2]
  Clinical deficits in EAE mice: reduced deficits
  Lesions in EAE mice: reduced numbers and sizes of inflammatory, demyelinating and demyelinated lesions

## human growth hormone [hGH]
[3]
  Somatomedin C Blood Levels Increase, Mean: 61.0%
